The results in this text go back to ChEMBL document CHEMBL6120985, “Discovery of a potent PARP1 PROTAC as a chemosensitizer for the treatment of colorectal cancer” (Eur J Med Chem, 2025).

Broadly, the Emax is the maximal effect, on the per cent scale that the assay sets. In general, IC50 refers to the concentration at which inhibition is half-maximal.

Experiment [1] concerns HCT-116. The experiment is described as follows: Synergistic antiproliferative activity against human HCT-116 cells assessed as combination index at 2 uM measured after 72 hrs in presence of 5 nM of SN-38 by CCK-8 method. In kind it is functional.
In experiment [2] the target is T1, Protein cereblon/Poly [ADP-ribose] polymerase 1 (Homo sapiens, UniProt P09874+Q96SW2). The experiment is described as follows: PROTAC activity at CRBN/PARP1 in human HCT-116 cells assessed as degradation of PARP1 at upto 10 uM measured after 24 hrs relative to control. In kind it is cell-based.
T1 sequence (P09874 2-1014 limits assumed): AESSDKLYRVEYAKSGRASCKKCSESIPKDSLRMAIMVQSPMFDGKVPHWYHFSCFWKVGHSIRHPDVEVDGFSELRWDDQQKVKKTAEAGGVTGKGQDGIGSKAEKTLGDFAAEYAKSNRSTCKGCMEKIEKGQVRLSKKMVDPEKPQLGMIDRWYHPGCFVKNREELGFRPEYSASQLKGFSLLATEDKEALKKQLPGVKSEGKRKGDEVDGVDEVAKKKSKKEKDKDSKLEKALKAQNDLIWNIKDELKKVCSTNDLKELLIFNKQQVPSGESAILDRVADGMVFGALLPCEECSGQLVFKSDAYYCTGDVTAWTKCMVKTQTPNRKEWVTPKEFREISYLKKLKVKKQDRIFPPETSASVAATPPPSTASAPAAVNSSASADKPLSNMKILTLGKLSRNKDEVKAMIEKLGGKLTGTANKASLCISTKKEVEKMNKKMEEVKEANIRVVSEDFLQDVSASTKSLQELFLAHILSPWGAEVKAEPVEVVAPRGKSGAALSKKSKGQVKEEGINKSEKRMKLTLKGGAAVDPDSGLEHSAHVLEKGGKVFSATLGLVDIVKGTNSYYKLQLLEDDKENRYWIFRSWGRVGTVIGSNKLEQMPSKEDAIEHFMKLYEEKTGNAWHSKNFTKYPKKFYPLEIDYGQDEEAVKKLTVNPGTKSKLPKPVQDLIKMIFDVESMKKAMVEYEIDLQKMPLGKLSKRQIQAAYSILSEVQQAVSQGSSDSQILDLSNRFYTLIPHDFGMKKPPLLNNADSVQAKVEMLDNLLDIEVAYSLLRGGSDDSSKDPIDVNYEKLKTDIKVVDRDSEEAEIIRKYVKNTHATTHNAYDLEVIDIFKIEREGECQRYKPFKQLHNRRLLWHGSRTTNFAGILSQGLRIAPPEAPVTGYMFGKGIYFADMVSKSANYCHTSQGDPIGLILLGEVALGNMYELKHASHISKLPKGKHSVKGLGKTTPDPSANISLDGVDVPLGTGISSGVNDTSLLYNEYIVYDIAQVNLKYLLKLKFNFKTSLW
T1 sequence (Q96SW2 whole entry partner): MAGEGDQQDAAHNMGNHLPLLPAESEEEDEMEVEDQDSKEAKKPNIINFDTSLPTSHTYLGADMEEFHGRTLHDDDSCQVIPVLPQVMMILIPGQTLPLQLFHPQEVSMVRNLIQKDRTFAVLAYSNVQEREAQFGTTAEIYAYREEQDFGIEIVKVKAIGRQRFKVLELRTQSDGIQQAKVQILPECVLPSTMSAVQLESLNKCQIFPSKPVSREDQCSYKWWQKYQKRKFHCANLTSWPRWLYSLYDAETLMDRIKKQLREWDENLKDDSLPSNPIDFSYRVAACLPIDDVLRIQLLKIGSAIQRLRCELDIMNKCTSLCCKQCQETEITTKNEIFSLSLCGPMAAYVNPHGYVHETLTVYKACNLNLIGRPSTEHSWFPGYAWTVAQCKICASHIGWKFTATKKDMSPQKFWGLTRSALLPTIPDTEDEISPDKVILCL
The subject of experiment [3] is HCT-116. Put plainly: Induction of apoptosis in human HCT-116 cells assessed as early apoptotic cells at 1 uM measured after 72 hrs in presence of SN-38 by annexin V/FITC and PI staining based flow cytometry analysis (reference value: 3.43%). In kind it is functional. (In general: Flow cytometry measures light scatter and fluorescence of single cells or particles in a stream.)

The test system of experiment [4] is HCT-116. The experiment is described as follows: Synergistic antiproliferative activity against human HCT-116 cells assessed as combination index at 4 uM measured after 72 hrs in presence of 2.5 nM of SN-38 by CCK-8 method. In kind it is functional. A general note: Formazan colour is commonly taken as a measure of viable cells.
The test system of experiment [5] is HCT-116. Put plainly: Upregulation of CDK1 level in human HCT-116 cells at 1 uM in presence of SN-38 by Western blot analysis. In kind it is functional, cell-based. A general note: A western blot detects proteins with antibodies after separation by electrophoresis.
Experiment [6] relates to HCT-116. Put plainly: Synergistic antiproliferative activity against human HCT-116 cells assessed as combination index at 0.5 uM measured after 72 hrs in presence of 5 nM of SN-38 by CCK-8 method. Format: functional.
Experiment [7] has as its system HCT-116. The experiment is described as follows: Synergistic antiproliferative activity against human HCT-116 cells assessed as combination index at 0.5 uM measured after 72 hrs in presence of 1.25 nM of SN-38 by CCK-8 method. Format: functional.
Experiment [8] is described as follows: Potency index, ratio of SK-575 IC50 to test compound IC50 for cytotoxicity against human LoVo cells assessed as inhibition of cell growth measured after 72 hrs by CCK-8 method. Format: functional.
The test system of experiment [9] is HCT-116. Put plainly: Synergistic antiproliferative activity against human HCT-116 cells assessed as combination index at 4 uM measured after 72 hrs in presence of 10 nM of SN-38 by CCK-8 method. Format: functional.
The subject of experiment [10] is HCT-116. The experiment is described as follows: Synergistic antiproliferative activity against human HCT-116 cells assessed as combination index at 1 uM measured after 72 hrs in presence of 5 nM of SN-38 by CCK-8 method. Format: functional.
The target of experiment [11] is T1, Protein cereblon/Poly [ADP-ribose] polymerase 1. Put plainly: PROTAC activity at CRBN/PARP1 in human HCT-116 cells assessed as degradation of PARP1 at 1 uM in presence of thalidomide. Format: cell-based.
The target in experiment [12] is Protein cereblon/Poly [ADP-ribose] polymerase 2 (Homo sapiens, UniProt Q9UGN5+Q96SW2). The experiment is described as follows: PROTAC activity at CRBN/PARP2 in human HCT-116 cells assessed as maximum degradation of PARP2 relative to control. In kind it is cell-based.
Protein cereblon/Poly [ADP-ribose] polymerase 2, sequence (Q96SW2 whole entry, looked up): as the sequence (Q96SW2 whole entry partner) above
Protein cereblon/Poly [ADP-ribose] polymerase 2, sequence (Q9UGN5 whole entry, looked up): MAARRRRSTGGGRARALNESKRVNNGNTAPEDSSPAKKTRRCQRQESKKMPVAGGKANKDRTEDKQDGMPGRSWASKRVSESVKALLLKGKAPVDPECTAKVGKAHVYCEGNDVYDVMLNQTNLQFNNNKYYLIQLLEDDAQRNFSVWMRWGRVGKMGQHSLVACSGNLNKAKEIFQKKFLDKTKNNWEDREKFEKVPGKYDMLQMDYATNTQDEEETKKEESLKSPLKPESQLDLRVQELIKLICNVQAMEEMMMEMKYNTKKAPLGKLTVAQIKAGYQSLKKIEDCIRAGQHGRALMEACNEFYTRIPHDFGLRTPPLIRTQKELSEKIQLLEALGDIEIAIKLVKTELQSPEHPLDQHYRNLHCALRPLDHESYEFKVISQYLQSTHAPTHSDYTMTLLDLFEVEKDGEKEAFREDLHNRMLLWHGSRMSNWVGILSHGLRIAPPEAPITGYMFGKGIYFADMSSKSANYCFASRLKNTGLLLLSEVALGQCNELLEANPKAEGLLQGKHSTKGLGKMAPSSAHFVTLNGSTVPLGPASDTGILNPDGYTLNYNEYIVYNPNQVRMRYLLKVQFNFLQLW
Experiment [13] has as its system HCT-116. Put plainly: Synergistic antiproliferative activity against human HCT-116 cells assessed as combination index at 4 uM measured after 72 hrs in presence of 1.25 nM of SN-38 by CCK-8 method. In kind it is functional.
Experiment [14] relates to HCT-116. Put plainly: Induction of apoptosis in human HCT-116 cells assessed as viable cells at 1 uM measured after 72 hrs in presence of SN-38 by annexin V/FITC and PI staining based flow cytometry analysis (reference value: 89.6%). The following applies: read-out: Activity. In kind it is functional.
Experiment [15] has as its system HCT-116. Put plainly: Synergistic antiproliferative activity against human HCT-116 cells assessed as combination index at 1 uM measured after 72 hrs in presence of 2.5 nM of SN-38 by CCK-8 method. Format: functional.
The test system of experiment [16] is HCT-116. Put plainly: Antagonistic antiproliferative activity against human HCT-116 cells assessed as combination index at 2 uM measured after 72 hrs in presence of 0.625 nM of SN-38 by CCK-8 method. In kind it is functional.
The subject of experiment [17] is HCT-116. Put plainly: Downregulation of CDC25 level in human HCT-116 cells at 1 uM in presence of SN-38 by KEGG enrichment analysis. In kind it is functional, cell-based.
Experiment [18] relates to HCT-116. The experiment is described as follows: Synergistic antiproliferative activity against human HCT-116 cells assessed as combination index at 2 uM measured after 72 hrs in presence of 2.5 nM of SN-38 by CCK-8 method. Format: functional.
Experiment [19] has as its target T1, Protein cereblon/Poly [ADP-ribose] polymerase 1. The experiment is described as follows: PROTAC activity at CRBN/PARP1 in human HCT-116 cells assessed as degradation of PARP1 at 1 uM in presence of MG132. In kind it is cell-based.
Experiment [20] has the same target. The experiment is described as follows: PROTAC activity at CRBN/PARP1 in human HCT-116 cells assessed as degradation of PARP1 at 1 uM in presence of MLN4924. Format: cell-based.
Another experiment has as its system SW-620. Put plainly: Potency index, ratio of SK-575 IC50 to test compound IC50 for cytotoxicity against human SW620 cells assessed as inhibition of cell growth measured after 72 hrs by CCK-8 method. Format: functional.
Experiment [21] deals with HCT-116. The experiment is described as follows: Antagonistic antiproliferative activity against human HCT-116 cells assessed as combination index at 1 uM measured after 72 hrs in presence of 0.625 nM of SN-38 by CCK-8 method. In kind it is functional.
A further experiment deals with LoVo. The experiment is described as follows: Cytotoxicity against human LoVo cells assessed as inhibition of cell growth measured after 72 hrs by CCK-8 method. Format: functional, cell-based.
The test system of experiment [22] is HCT-116. Put plainly: Synergistic antiproliferative activity against human HCT-116 cells assessed as combination index at 2 uM measured after 72 hrs in presence of 10 nM of SN-38 by CCK-8 method. In kind it is functional.

Active and inactive are the calls of the source. The rule behind the calls is not given here.

For `NC(=O)c1cccc2cn(-c3ccc([C@@H]4CCCN(CCC5CCN(CCC6CCN(CC7CCN(c8ccc9c(c8)C(=O)N(C8CCC(=O)NC8=O)C9=O)CC7)CC6)CC5)C4)cc3)nc12` (some centres undefined), the CI in the experiment on HCT-116 [1] was 0.752; in the experiment on HCT-116 [4], 0.545; in the experiment with HCT-116 [6], 0.756; with HCT-116 [7] it was 0.932; with HCT-116 [9] it was 0.538; in the experiment on HCT-116 [10] it was 0.698. For the same compound, the CI was 0.574 in the experiment on HCT-116 [13]; 0.823 in the experiment with HCT-116 [15]; 1.241 in the experiment with HCT-116 [16]; 0.856 with HCT-116 [18]; 1.003 with HCT-116 [21]; 0.766 with HCT-116 [22]. Moreover, the values for the Emax in [2] and in experiment [12] were 96.5% and 84.8%, respectively. Further, the Activity in the experiment with HCT-116 [3] worked out at 11.9%. Also, the outcome in the experiment with HCT-116 [5] and in the experiment on HCT-116 [17] was Active. The “Ratio IC50” value is under 3.5 in experiment [8] and under 6 in the experiment on SW-620. The result in experiment [11], in [19] and in experiment [20] was inactive. Moreover, the viability at 1 µM in the experiment with HCT-116 [14] came out at 58.2%. The concentration for half-maximal inhibition (IC50) with LoVo amounted to 2.84 µM.
